Assay results taken from patent publication EP0517412A1, “Pharmaceutical formulations of a benzodiazepine” (MERCK SHARP & DOHME LTD., priority 1991, dated 1992).

Key:
Format in all cases: physicochemical
solubility in water = assay: solubility in water
[1] = solubility of the benzodiazepine in prior-art type carriers
[2] = maximum solubility of the benzodiazepine in carriers of the invention

Cc1cccc(NC(=O)NC2N=C(c3ccccc3)c3ccccc3N(C)C2=O)c1 (stereo not drawn) [(A), 3R(+)-N-(2,3-dihydro-1-methyl-2-oxo-5-phenyl-1H-1,4-benzodiazepin-3-yl)-N'-(3-methylphenyl)-urea]
solubility (solubility in water): < 2 µg/mL
solubility (carrier a poor solvent) ([1]; benzodiazepine substituted for cyclosporin in formulation type of GB 2 228 198 (Maisine and Cremophore RH40)): less than 10 mg/g
solubility ([1]; benzodiazepine substituted for cyclosporin in formulation type of GB 2015339 (Labrafil M1944CS and ethanol with corn oil or olive oil; or glycerol mono-oleate and ethanol)): ~20 mg/g
solubility ([1]; benzodiazepine substituted for dihydrocyclosporin in formulation type of BE 895 724 (ethanol, Imwitor 742, esterified corn oil)): ~60 mg/g
amount that can be dissolved ([2]; Method 2 (room temperature method, 20°C, Silverson mixer), Labrafil M2125 CS, Tween 80, propylene glycol, purified water): up to 6 % (w/w)
maximum solubility for the benzodiazepine ([2]; carrier Labrasol/Tween 80): ~240 mg/g
maximum solubility for the benzodiazepine ([2]; carrier comprising Imwitor 742 and Tween 80): ~140 mg/g
maximum solubility for the benzodiazepine ([2]; corresponding Labrafil-containing carrier): 60 to 80 mg/g
solubility in the mixture of ingredients of the carrier ([2]; mixture of carrier ingredients compared with the separate ingredients): more than in the separate ingredients
percentage of the active ingredient that can be dissolved in the carrier ([2]; without heating): around 6%
